Results taken from patent US7943137B2, “FPRL1 ligands and use thereof” (Takeda Pharmaceutical Company Limited, priority 2002, dated 2011).
Where a SMILES comes first, the peptide text is derived from it. Where no end group is shown, it is not given here. The star is where a group is joined. For = O=C*

Legend:
FPRL1-GFP fusion protein = assay: Intracellular transition (internalization) of FPRL1-GFP fusion protein expressed in CHO cells; assay type: cell-based, human; conditions: 37° C., one hour, Cellomics ArrayScan
Experimental: CHO cell line, in which a protein, wherein GFP (Green Fluorescent Protein) is fused to the C-terminus of human FPRL1, is stably expressed, was established using an expression plasmid for animal cells by publicly known method. For assay of intracellular transition of the protein, the cells at growth phase was seeded at the concentration of 40000 cells/well on 96-well plate (Packard, View-Plate™-96, Black), and cultured for overnight at 37° C. under 5% CO2. Firstly, the cells into the well were washed with assay buffer (HBSS (GibcoBRL) supplemented with 0.1% bovine serum albumin (BSA)). Then, 100 μl of the assay buffer containing a test sample were added to the well and incubated at 37° C. under 5% CO2 for one hour. Subsequently, 100 μl/well of cell fixation solution (PBS containing 4% paraformaldehyde (Ca/Mg free)) were added to the well and stood at room temperature for 30 minutes. After removing the cell fixation solution and washing the cells with Ca/Mg free PBS, a labeling solution (3.13 μg/ml of wheat germ aggulutinin (Molecular Probe, W-849) and 5 μg/ml of Hoechst-containing Ca/Mg free PBS) was added (50 μl/well) and stood at room temperature for 20 minutes. After removing the labeling solution, the cells were washed with Ca/Mg free PBS (200 μl/well) to replace the same (200 μl/well). […]

[1] = tested on: FPRL1-GFP fusion protein-expressing CHO cells; assay: Cell migration stimulating activity to FPRL1-GFP fusion protein-expressing CHO cells; assay type: cell-based, human; conditions: chemotaxis chamber, 37° C., 4 hours, FIG. 24
Experimental: Using FPRL1-GFP fusion protein-expressing CHO cells, which are described in Example 18, a cell migration activity of the above cells by stimulation using formylated peptide was investigated.
The 96-well disposable chemotaxis chamber (ChemoTx-96, Neuro Probe) was used for assay. Firstly, to bottom well of the chamber, a test sample diluted with DMEM (Invitrogen) containing 0.5% BSA was added. Then, a polycarbonate filter, which is precoated with 10 μg/ml bovine fibronectin (Yagai) on both sides, was fixed on the chamber, and contacted with the test sample. Next, suspension for FPRL1-GFP fusion protein-expressing CHO cells was put onto the filter at 96-well site as a droplet. The chamber was covered, and cultured at 37° C. for 4 hours under conditions of 5% CO2. The cell suspension was prepared as follows: the aforementioned CHO cells at growth phase, which had been precultured in 150 cm^2 flask for culture, were peal off using trypsin/EDTA; the cell suspension obtained was centrifuged to get cell precipitation; and after washing with PBS once, the cells were resuspended in DMEM medium containing 0.5% BSA at the concentration of 3.6×10^6 cells/ml. […] For this filter, absorbance at 595 nm was measured using microplate reader.

human FPRL1 = target: T1, human FPRL1 (Homo sapiens, UniProt P25090); assay: Inhibiting activity for intracellular cAMP production in human FPRL1-expressing CHO cells; assay type: cell-based; conditions: comparison of purified ligand and chemical preparation, FIG. 14
T1 construct: expressed in transfected cells; host or cells: CHO cells (clone No. 8)
T1 sequence (P25090 1-351): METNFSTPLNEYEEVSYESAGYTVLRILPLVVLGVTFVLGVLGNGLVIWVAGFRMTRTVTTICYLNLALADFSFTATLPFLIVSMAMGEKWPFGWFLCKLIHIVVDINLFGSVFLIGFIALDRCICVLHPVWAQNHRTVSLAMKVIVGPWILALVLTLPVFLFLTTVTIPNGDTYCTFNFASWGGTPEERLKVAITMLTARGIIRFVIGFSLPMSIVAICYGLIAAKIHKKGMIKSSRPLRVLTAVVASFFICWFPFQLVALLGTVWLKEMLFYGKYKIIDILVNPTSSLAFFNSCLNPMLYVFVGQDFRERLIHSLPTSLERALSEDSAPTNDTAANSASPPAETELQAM
Excerpt: The term “Peptide (nM)” on horizontal axis and “Inhibition (5)” on vertical axis means a concentration of peptide (nM) and an inhibiting activity for intracellular cAMP production (Inhibition (%)), respectively. Closed triangle represents an activity of the intrinsic FPRL1 ligand P1, which has been purified in Example 7. It is derived from fr. 24-25 of the final purified preparation uRPC C2/C18 SC2.1/10. The concentration for peptide is deduced from the absorbance at 215 nm of final purification chromatogram. Closed circle indicates an activity of 16 amino acid peptide containing N-terminal fifteen amino acids of porcine cytochrome B, at which synthetic N-terminus is formylated (formyl-MTNIRKSHPLMKIINN).
Activity of porcine intrinsic FPRL1 ligand P1, which was purified in Example 7, and activity of 16 amino acid-peptide (formyl-MTNIRKSHPLMKIINN, SEQ ID NO: 18), comprising 15 amino acids at N-terminus of N-terminally formylated porcine cytochrome B, wherein the sequence was deduced from structure analysis, were compared using an inhibiting activity for intracellular cAMP production in human […] CHO cells as an index (FIG. 14).

Compound | intracellular transition of FPRL1-GFP protein (MemCyto Above Threshold) (FPRL1-GFP fusion protein) | cell migration stimulating activity (absorbance at 595 nm) [1] | inhibiting activity for intracellular cAMP production (human FPRL1)
CSCC[C@H](NC=O)C(=O)N[C@@H](Cc1ccccc1)C(=O)N[C@@H](C)C(=O)N[C@@H](CC(=O)O)C(=O)N[C@@H](CCCNC(=N)N)C(=O)N[C@@H](Cc1c[nH]c2ccccc12)C(=O)N[C@@H](CC(C)C)C(=O)N[C@@H](Cc1ccccc1)C(=O)N[C@@H](CO)C(=O)N[C@H](C(=O)N[C@@H](CC(N)=O)C(=O)N[C@@H](Cc1c[nH]cn1)C(=O)N[C@@H](CCCCN)C(=O)O)[C@@H](C)O [hfCYOX-1(1-13)] (For-MFADRWLFSTNHK-OH; C-terminus assumed) | concentration-dependent transition of FPRL1-GFP protein from cell membrane to cytoplasm | bell-shaped dose-dependent cell migration stimulating activity | 
CSCC[C@H](NC=O)C(=O)N[C@@H](Cc1ccccc1)C(=O)N[C@H](C(=O)N[C@@H](CC(N)=O)C(=O)N[C@@H](CCCNC(=N)N)C(=O)N[C@@H](Cc1c[nH]c2ccccc12)C(=O)N[C@@H](CC(C)C)C(=O)N[C@@H](Cc1ccc(O)cc1)C(=O)N[C@@H](CO)C(=O)N[C@H](C(=O)N[C@@H](CC(N)=O)C(=O)N[C@@H](Cc1c[nH]cn1)C(=O)N[C@@H](CCCCN)C(=O)O)[C@@H](C)O)C(C)C [pfCYOX-1(1-13)] (For-MFVNRWLYSTNHK-OH; C-terminus assumed) | concentration-dependent transition of FPRL1-GFP protein from cell membrane to cytoplasm | bell-shaped dose-dependent cell migration stimulating activity | 
CHO-Met-Thr-Asn-Ile-Arg-Lys-Ser-His-Pro-Leu-Met-Lys-Ile-Ile-Asn ({CHO}-MTNIRKSHPLMKIIN) [porcine intrinsic FPRL1 ligand P1, purified from porcine stomach; N-terminal peptide of N-formylated porcine cytochrome b] |  |  | both activities are equivalent
formyl-MTNIRKSHPLMKIINN (For-MTNIRKSHPLMKIINN) [16 amino acid-peptide comprising 15 amino acids at N-terminus of N-terminally formylated porcine cytochrome B] |  |  | both activities are equivalent
